Assay results published in patent US8889876B2, “Histone deacetylase inhibitors and uses thereof” (Jiangsu Hengyi Pharmaceutical Co., Ltd., priority 2008, dated 2014).

Tests used:
Type in all cases: cell-based
[1] = tested on: Hep3B2.1-7 human liver cancer cells; experiment: CCK-8 proliferation inhibition, Hep3B2.1-7; conditions: CCK-8 method; for inhibition at 10 µM / inhibition at 100 µM: Homo sapiens, Hep3B
Protocol: (§1) Detecting the inhibition rate of the compound concentrations of 100 μM and 10 μM to Hut78 T-cell Leukemia cell, Jurkat E6-1 human T-cell lymphoma, PANC-1 human pancreatic cancer cells, A549 human lung cancer cells, K562 human chronic myeloid leukemia cells, Hep3B2.1-7 human liver cancer cells, MDA-MB-435s human breast cancer cells, Colo320 human rectal cancer cells and PC-3 human prostate cancer using CCK-8 method.

[2] = tested on: PANC-1 human pancreatic cancer cells; experiment: CCK-8 proliferation inhibition, PANC-1; conditions: for inhibition at 10 µM / inhibition at 100 µM: Homo sapiens; for inhibition at 10 µM: PANC-1, 10 μM; for inhibition at 100 µM: PANC-1, 100 μM
Protocol: as §1

[3] = tested on: A549 human lung cancer cells; experiment: CCK-8 proliferation inhibition, A549; conditions: CCK-8 method; for inhibition at 10 µM / inhibition at 100 µM: Homo sapiens, A549
Protocol: as §1

[4] = tested on: PC-3 human prostate cancer; experiment: CCK-8 proliferation inhibition, PC-3; conditions: CCK-8 method; for inhibition at 10 µM / inhibition at 100 µM: Homo sapiens
Protocol: as §1

[5] = tested on: Jurkat E6-1 human T-cell lymphoma; experiment: CCK-8 proliferation inhibition, Jurkat E6-1; conditions: for inhibition at 10 µM / inhibition at 100 µM: Homo sapiens; for inhibition at 10 µM: Jurkat E6.1, 10 μM; for inhibition at 100 µM: Jurkat E6.1, 100 μM
Protocol: as §1

[6] = tested on: Hut78 T-cell Leukemia cell; experiment: CCK-8 proliferation inhibition, Hut78; conditions: for inhibition at 10 µM / inhibition at 100 µM: Homo sapiens, read-out: Hut-78 (inhibition %); for inhibition at 10 µM: HuT78, 10 μM; for inhibition at 100 µM: HuT78, 100 μM
Protocol: as §1

[7] = tested on: K562 human chronic myeloid leukemia cells; experiment: CCK-8 proliferation inhibition, K562; conditions: for inhibition at 10 µM / inhibition at 100 µM: Homo sapiens; for inhibition at 10 µM: K562, 10 μM; for inhibition at 100 µM: K562, 100 μM
Protocol: as §1

[8] = tested on: Colo320 human rectal cancer cells; experiment: CCK-8 proliferation inhibition, Colo320; conditions: CCK-8 method; for inhibition at 10 µM / inhibition at 100 µM: Homo sapiens, COLO 320
Protocol: as §1

[9] = tested on: MDA-MB-435s human breast cancer cells; experiment: CCK-8 proliferation inhibition, MDA-MB-435s; conditions: CCK-8 method; for inhibition at 10 µM / inhibition at 100 µM: Homo sapiens, MDA-MB-435S
Protocol: as §1

Compound | inhibition at 10 µM ([1]; compound concentration 10 μM) [%] | inhibition at 100 µM ([1]; compound concentration 100 μM) [%] | inhibition at 10 µM [2] [%] | inhibition at 100 µM [2] [%] | inhibition at 10 µM ([3]; compound concentration 10 μM) [%] | inhibition at 100 µM ([3]; compound concentration 100 μM) [%] | inhibition at 10 µM ([4]; compound concentration 10 μM) [%] | inhibition at 100 µM ([4]; compound concentration 100 μM) [%] | inhibition at 10 µM [5] [%] | inhibition at 100 µM [5] [%] | inhibition at 10 µM [6] [%] | inhibition at 100 µM [6] [%] | inhibition at 10 µM [7] [%] | inhibition at 100 µM [7] [%] | inhibition at 10 µM ([8]; compound concentration 10 μM) [%] | inhibition at 100 µM ([8]; compound concentration 100 μM) [%] | inhibition at 10 µM ([9]; compound concentration 10 μM) [%] | inhibition at 100 µM ([9]; compound concentration 100 μM) [%] | further results
Cc1ccc(/C=C/C(=O)NCc2ccc(C(=O)Nc3cccnc3N)cc2)cc1 [V-27, N-(2-amino-3-pyridyl)-4-[(4-methylcinnamoyl)aminomethyl]benzamide] | 25.4 | 49.9 | 20.2 | 26.2 | 6.3 | 37.3 | 50.2 | 61 | 58.3 | 80.9 | 43 | 77 | 54.3 | 85.8 | 12.9 | 40.1 | 33 | 77 | 
COc1ccc(COC(=O)NCc2ccc(C(=O)Nc3ccncc3N)cc2)cc1 [V-12] | 5 | 90.4 | -1.8 | 34.9 | -5.9 | 38 | 29.7 | 89.3 | 36.4 | 96.3 | 17.5 | 83.6 | 56.9 | 94.5 | -1.8 | 86.4 | 14.2 | 94.5 | 
COc1cc(CCC(=O)NCc2ccc(C(=O)Nc3ccnc(N)c3)cc2)cc(OC)c1OC [V-55, N-(2-amino-4-pyridyl)-4-[3-(3,4,5-methoxyphenyl)propionylaminomethyl]benzamide] |  |  |  |  |  |  |  |  |  |  |  |  |  |  |  |  |  |  | Hep3B (inhibition %) ([1]; compound concentration 10 μM): 21.7%; Hep3B (inhibition %) ([1]; compound concentration 100 μM): 7.2%; PANC-1 (inhibition %) ([2]; 10 μM): −7.5%; PANC-1 (inhibition %) ([2]; 100 μM): −6.1%; A549 (inhibition %) ([3]; compound concentration 10 μM): −16.5%; A549 (inhibition %) ([3]; compound concentration 100 μM): −15.3%; PC-3 (inhibition %) ([4]; compound concentration 10 μM): 13.3%; PC-3 (inhibition %) ([4]; compound concentration 100 μM): 10.9%; Jurkat E6-1 (inhibition %) ([5]; 10 μM): 10.6%; Jurkat E6-1 (inhibition %) ([5]; 100 μM): 0.6%; Hut-78 (inhibition %) ([6]; 10 μM): −5.5%; Hut-78 (inhibition %) ([6]; 100 μM): −2.4%; K562 (inhibition %) ([7]; 10 μM): −12.8%; K562 (inhibition %) ([7]; 100 μM): −17.4%; Colo320 (inhibition %) ([8]; compound concentration 10 μM): −11.2%; Colo320 (inhibition %) ([8]; compound concentration 100 μM): −2.8%; 435s(inhibition %) ([9]; compound concentration 10 μM): 6.5%; 435s(inhibition %) ([9]; compound concentration 100 μM): 4.9%
Nc1cnccc1NC(=O)c1ccc(CNC(=O)CCc2ccccc2)cc1 [V-49] | 11 | 63.4 | -6.1 | 7.3 | -9.5 | 39.9 | 28.3 | 53.8 | 28.4 | 93.7 | 2.3 | 54.4 | 22.1 | 71 | -2.5 | 33.8 | 10.3 | 51.9 | 
Nc1ncccc1NC(=O)c1ccc(CNC(=O)/C=C/c2ccccc2)cc1 [V-25, N-(2-amino-3-pyridyl)-4-(cinnamoylaminomethyl)benzamide] | 18.4 | 45.7 | 12 | 25.1 | 29.8 | 67.9 | 41.8 | 67.1 | 20.3 | 80.2 | 23.4 | 53.5 | 33.6 | 72.4 | 4.9 | 28.9 | 32.5 | 73.3 | 
